{"source": "patent US20110039721A1", "about": "“METHOD FOR PREDICTION ABOUT CARCINOGENICITY OF SUBSTANCE IN RODENT” (Chemicals Evaluation and Research Institute, priority 2007, published 2011)", "test_system": "mRNA expressed from the genes (A) to (D) in rat liver", "assay": "Behavior of genes (mRNA expression level, oligo-DNA microarray) in rat liver after 28-day oral administration", "format": "in vivo", "settings": "mRNA vs vehicle control group", "method": "A test solution was prepared by dissolving each of the carcinogens and the non-carcinogens shown in Tables 2 to 6 in the corresponding solvent shown in Tables 2 to 6. Each of the thus prepared test solutions and the solvents used for the preparation was administered by oral gavage to rats in each group. As the rats, male rats (F344 SPF rats) at 5 weeks of age obtained from Charles River Laboratories Japan, Inc. were used. The animals were divided into groups, each containing four individuals. The volume of the solvent administered to the vehicle control group was set to the same volume as that of the test solution administered to the carcinogen administration group or the non-carcinogen administration group. The administration of the test solution or the solvent was performed once daily for 28 days. Apiece was excised from the liver of each of the rats after a lapse of 28 days from the initiation of the administration, and the total RNA was extracted and purified.\nThe expression level of mRNA was compared between each of the chemical substance administration groups and the corresponding vehicle control group, and genes that satisfy the requirements described in (A) to (D) were selected, respectively.\nThe case where the expression level of mRNA in the carcinogen administration group or the non-carcinogen administration group is 1.5 times or more or 1/1.5 or less of the expression level of the corresponding mRNA expressed in the control group was determined to be significant. In this connection, the determination as to whether or not the change is significant was performed by taking into consideration the direction of increase or decrease in the expression level. In the case where the direction of increase or decrease is different as compared with the case where another carcinogen was administered, the change was determined to be not significant.", "key": {"[1]": {"settings": "gene group (A), Unigene No. Rn.167075"}, "[2]": {"settings": "gene group (C), Unigene No. Rn.120914"}}}
{"smiles": "O=[N+]([O-])c1cc[n+]([O-])c2ccccc12", "note": "[TS049, 4-Nitroquinoline-1-oxide]", "values": [{"measurement": "Behavior of gene caused by administration of chemical substance, Gene No. 4846", "setting": "gene group (A), Unigene No. Rn.144554", "value": "−"}, {"measurement": "Behavior of gene caused by administration of chemical substance, Gene No. 2026", "setting": "[1]", "value": "−"}, {"measurement": "Behavior of gene caused by administration of chemical substance, Gene No. 4218", "setting": "[1]", "value": "−"}, {"measurement": "Behavior of gene caused by administration of chemical substance, Gene No. 6182", "setting": "gene group (A), Unigene No. Rn.5834", "value": "−"}, {"measurement": "Behavior of gene caused by administration of chemical substance, Gene No. 5600", "setting": "gene group (A), Unigene No. Rn.9836", "value": "−"}, {"measurement": "Behavior of gene caused by administration of chemical substance, Gene No. 1494", "setting": "gene group (B), Unigene No. Rn.1430", "value": "−"}, {"measurement": "Behavior of gene caused by administration of chemical substance, Gene No. 2045", "setting": "gene group (B), Unigene No. Rn.19329", "value": "−"}, {"measurement": "Behavior of gene caused by administration of chemical substance, Gene No. 2203", "setting": "gene group (B), Unigene No. Rn.21240", "value": "−"}, {"measurement": "Behavior of gene caused by administration of chemical substance, Gene No. 533", "setting": "gene group (C), Unigene No. Rn.106184", "value": "−"}, {"measurement": "Behavior of gene caused by administration of chemical substance, Gene No. 725", "setting": "gene group (C), Unigene No. Rn.108075", "value": "−"}, {"measurement": "Behavior of gene caused by administration of chemical substance, Gene No. 1163", "setting": "gene group (C), Unigene No. Rn.11766", "value": "−"}, {"measurement": "Behavior of gene caused by administration of chemical substance, Gene No. 4973", "setting": "gene group (C), Unigene No. Rn.118529", "value": "−"}, {"measurement": "Behavior of gene caused by administration of chemical substance, Gene No. 4095", "setting": "gene group (C), Unigene No. Rn.119024", "value": "−"}, {"measurement": "Behavior of gene caused by administration of chemical substance, Gene No. 1334", "setting": "[2]", "value": "−"}, {"measurement": "Behavior of gene caused by administration of chemical substance, Gene No. 6620", "setting": "[2]", "value": "−"}, {"measurement": "Behavior of gene caused by administration of chemical substance, Gene No. 6303", "setting": "gene group (C), Unigene No. Rn.123063", "value": "−"}, {"measurement": "Behavior of gene caused by administration of chemical substance, Gene No. 5878", "setting": "gene group (C), Unigene No. Rn.143213", "value": "−"}, {"measurement": "Behavior of gene caused by administration of chemical substance, Gene No. 1131", "setting": "gene group (C), Unigene No. Rn.144946", "value": "−"}, {"measurement": "Behavior of gene caused by administration of chemical substance, Gene No. 1562", "setting": "gene group (C), Unigene No. Rn.14744", "value": "−"}, {"measurement": "Behavior of gene caused by administration of chemical substance, Gene No. 1741", "setting": "gene group (C), Unigene No. Rn.1647", "value": "−"}, {"measurement": "Behavior of gene caused by administration of chemical substance, Gene No. 893", "setting": "gene group (C), Unigene No. Rn.164817", "value": "−"}, {"measurement": "Behavior of gene caused by administration of chemical substance, Gene No. 6026", "setting": "gene group (C), Unigene No. Rn.167685", "value": "−"}, {"measurement": "Behavior of gene caused by administration of chemical substance, Gene No. 154", "setting": "gene group (C), Unigene No. Rn.185941", "value": "−"}, {"measurement": "Behavior of gene caused by administration of chemical substance, Gene No. 1993", "setting": "gene group (C), Unigene No. Rn.18728", "value": "−"}, {"measurement": "Behavior of gene caused by administration of chemical substance, Gene No. 813", "setting": "gene group (C), Unigene No. Rn.201760", "value": "−"}, {"measurement": "Behavior of gene caused by administration of chemical substance, Gene No. 2494", "setting": "gene group (C), Unigene No. Rn.23969", "value": "−"}, {"measurement": "Behavior of gene caused by administration of chemical substance, Gene No. 2546", "setting": "gene group (C), Unigene No. Rn.24561", "value": "−"}, {"measurement": "Behavior of gene caused by administration of chemical substance, Gene No. 3776", "setting": "gene group (C), Unigene No. Rn.43232", "value": "−"}, {"measurement": "Behavior of gene caused by administration of chemical substance, Gene No. 3929", "setting": "gene group (C), Unigene No. Rn.4620", "value": "−"}, {"measurement": "Behavior of gene caused by administration of chemical substance, Gene No. 1119", "setting": "gene group (C), Unigene No. Rn.9757", "value": "−"}, {"measurement": "Behavior of gene caused by administration of chemical substance, Gene No. 6742", "setting": "gene group (C), Unigene No. Rn.9779", "value": "−"}, {"measurement": "Behavior of gene caused by administration of chemical substance, Gene No. 5634", "setting": "gene group (C), Unigene No. Rn.9862", "value": "−"}, {"measurement": "Behavior of gene caused by administration of chemical substance, Gene No. 5726", "setting": "gene group (D), Unigene No. Rn.9939", "value": "+"}]}
